Test results published in ChEMBL document CHEMBL4229406, “The tyrosinase inhibitory effects of isoxazolone derivatives with a (Z)-β-phenyl-α, β-unsaturated carbonyl scaffold” (Bioorg Med Chem, 2018).

Tests used:
[1] = Antioxidant activity assessed as DPPH-radical scavenging activity at 1 mM incubated for 30 mins under dark condition; format: functional
[2] = target: T1, Tyrosinase (Agaricus bisporus, UniProt O42713); experiment: Inhibition of mushroom tyrosinase using L-tyrosine as substrate measured after 30 mins
T1 sequence (O42713 whole entry): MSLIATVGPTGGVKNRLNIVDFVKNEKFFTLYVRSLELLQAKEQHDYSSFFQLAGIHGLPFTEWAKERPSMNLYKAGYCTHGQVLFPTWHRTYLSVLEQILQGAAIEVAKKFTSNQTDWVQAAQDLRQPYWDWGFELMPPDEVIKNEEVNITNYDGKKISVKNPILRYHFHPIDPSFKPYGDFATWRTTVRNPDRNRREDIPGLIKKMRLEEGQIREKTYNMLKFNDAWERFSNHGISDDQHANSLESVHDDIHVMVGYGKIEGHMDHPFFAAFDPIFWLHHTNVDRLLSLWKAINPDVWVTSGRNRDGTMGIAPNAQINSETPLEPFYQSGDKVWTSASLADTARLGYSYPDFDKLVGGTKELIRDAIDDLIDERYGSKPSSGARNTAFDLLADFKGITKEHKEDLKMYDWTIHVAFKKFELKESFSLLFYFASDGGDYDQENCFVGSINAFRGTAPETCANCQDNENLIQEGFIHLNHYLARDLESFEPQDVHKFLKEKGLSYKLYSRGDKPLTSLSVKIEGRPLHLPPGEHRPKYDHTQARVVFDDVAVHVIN

[3] = target: T2, Tyrosinase (Agaricus bisporus) (UniProt O42713); experiment: Competitive inhibition of mushroom tyrosinase using varying levels of L-tyrosine as substrate measured after 30 mins by Lineweaver-Burk plot analysis
T2 sequence (whole entry): T1 sequence (O42713 whole entry)

[4] = Cytotoxicity against mouse B16F10 cells assessed as cell viability at 5 uM after 24 hrs by MTT assay relative to control; format: cell-based, B16-F10; conditions: read-out: Activity
[5] = Cytotoxicity against mouse B16F10 cells assessed as cell viability at 10 uM after 24 hrs by MTT assay relative to control; format: cell-based, B16-F10; conditions: read-out: Activity
[6] = Cytotoxicity against mouse B16F10 cells assessed as cell viability at 25 uM after 24 hrs by MTT assay relative to control; format: cell-based, B16-F10; conditions: read-out: Activity
[7] = test system: B16-F10; experiment: Antimelanogenic activity in mouse B16F10 cells assessed as inhibition of alpha-MSH-stimulated melanin synthesis measured after 24 hrs by ELISA; format: functional, cell-based
[8] = target: T3, Tyrosinase (Mus musculus) (UniProt P11344); experiment: Inhibition of tyrosinase in alpha-MSH stimulated mouse B16F10 cells using L-dopa as substrate pretreated for 24 hrs followed by substrate addition and measured after 30 mins
T3 sequence (whole entry): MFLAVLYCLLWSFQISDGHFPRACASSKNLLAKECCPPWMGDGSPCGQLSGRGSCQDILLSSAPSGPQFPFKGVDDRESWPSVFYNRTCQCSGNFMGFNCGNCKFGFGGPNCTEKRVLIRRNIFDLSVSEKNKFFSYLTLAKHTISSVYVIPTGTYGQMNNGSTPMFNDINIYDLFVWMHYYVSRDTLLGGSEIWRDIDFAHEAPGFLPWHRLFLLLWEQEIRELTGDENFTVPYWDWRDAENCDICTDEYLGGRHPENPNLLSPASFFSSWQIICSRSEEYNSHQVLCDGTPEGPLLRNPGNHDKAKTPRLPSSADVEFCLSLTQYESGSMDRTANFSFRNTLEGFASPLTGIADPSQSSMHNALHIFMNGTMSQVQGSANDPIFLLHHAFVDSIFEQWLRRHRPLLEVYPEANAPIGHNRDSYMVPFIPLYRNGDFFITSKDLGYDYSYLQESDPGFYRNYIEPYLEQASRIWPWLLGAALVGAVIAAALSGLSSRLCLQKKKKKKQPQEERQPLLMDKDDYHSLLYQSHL

[9] = target: T2, Tyrosinase (Agaricus bisporus); conditions: 500 uM
Description: Inhibition of mushroom tyrosinase at 500 uM using L-tyrosine as substrate measured after 30 mins relative to control

Row | SMILES | Activity [1] [%] | further results
1 | COc1ccc(/C=C2\C(=O)ON=C2c2ccccc2)cc1 | 47.2 | –
2 | O=C1ON=C(c2ccccc2)/C1=C/c1ccc(O)cc1 | 48.4 | –
3 | O=C1ON=C(c2ccccc2)/C1=C/c1ccc(O)cc1O | 46 | IC50 [2]: 32.1 µM
4 | COc1ccc(/C=C2\C(=O)ON=C2c2ccccc2)cc1O | 54.2 | –
5 | CCOc1ccc(/C=C2\C(=O)ON=C2c2ccccc2)cc1O | 66.4 | –
6 | O=C1ON=C(c2ccccc2)/C1=C/c1ccccc1O | 74.4 | –
7 | COc1cc(/C=C2\C(=O)ON=C2c2ccccc2)ccc1O | 75.3 | –
8 | COc1ccc(/C=C2\C(=O)ON=C2c2ccccc2)c(OC)c1 | 41.8 | –
9 | O=C1ON=C(c2ccccc2)/C1=C/c1ccc(O)c(Br)c1 | 82.6 | IC50 [2]: 14.6 µM; inhibition [3]: Dose-dependent effect; viability at 24 h, 5 µM [4]: 100%; viability at 24 h, 10 µM [5]: 98.7%; viability at 24 h, 25 µM [6]: 96.3%; inhibition [7]: Dose-dependent effect; inhibition [8]: Dose-dependent effect
10 | O=C1O[C@H]([C@@H](O)CO)C(O)=C1O | 87.5 | –
11 | OC[C@H]1O[C@@H](Oc2ccc(O)cc2)[C@H](O)[C@@H](O)[C@@H]1O | – | inhibition [9]: 32.6%
12 | COc1cc(/C=C2\C(=O)ON=C2c2ccccc2)cc(OC)c1O | 94.8 | –
13 | O=C1ON=C(c2ccccc2)/C1=C/c1ccc(O)c(O)c1 | 98.6 | –
14 | COc1ccc(/C=C2\C(=O)ON=C2c2ccccc2)cc1OC | 49.8 | –
